Where two headings read alike, the source gives them in different places. Where only a bound is given, the exact number is not on record here.

Experiment [1] concerns the target T1, CB1R (Homo sapiens, UniProt P21554). More on the design: host or cells: CHO-CB1 C3 cell line.
The target of experiment [2] is T2, CB2R (Homo sapiens, UniProt P34972). More on the design: expressed in transfected cells; host or cells: HEK-293T (HEK-CB2 cell line).
Experiment [3] has as its target T1, CB1R. The experiment can be described thus: CB1R radioligand binding competition ([3H]CP55,940). Details: host or cells: CHO-CB1 C3 cell line. Particulars: for Ki: displacement of [3H]CP 55,940, membranes of CHO-CB1 C3 cells, n = 3; for CB1R % at 1 μM: percentage displacement of specific [3H]CP 55,940 binding at 1 μM, n = 2. (Loss of bound radioactivity is the signal in a displacement assay; it reports binding, not function.)

Experiment [4] concerns the target T2, CB2R. In words: CB2R radioligand binding competition ([3H]CP55,940). More on the design: expressed in transfected cells; host or cells: HEK-293T (HEK-CB2 cell line). The conditions noted are these: for Ki: displacement of [3H]CP 55,940, membranes of HEK-293T cells, n = 3; for SI Ki CB1R/Ki CB2R: selectivity index, affinity ratio; for CB2R % at 1 μM: percentage displacement of specific [3H]CP 55,940 binding at 1 μM, n = 2.

In experiment [5] the target is T2, CB2R. In words: CB2R MAPK phosphorylation. Details: expressed in transfected cells; host or cells: HEK-293T, transient transfection (PEI). Format: cell-based. The source says: (§1) Initially we tested their ability to modify CB2R-mediated cAMP accumulation, providing insights into their functional behavior as either agonists or antagonists (Table ). Moreover, the signaling profiles of selected ligands were investigated through their impact on β-arrestin recruitment and Mitogen-Activated Protein Kinase (MAPK) phosphorylation pathway, enabling a more comprehensive evaluation of their intracellular signaling profiles (Table ).
(§2) JWH-133, a well-known nonbiased (balanced) agonist, was employed as the reference for comparing the signaling profiles of the tested compounds. An operational model analysis was applied to quantify the functional bias of each CB2R-selective agonist. This involved calculating the bias factor by comparing the signaling pathways: β-arrestin versus cAMP, MAPK versus cAMP, and β-arrestin versus MAPK.

Experiment [6] deals with T2, CB2R. The experiment can be described thus: CB2R cAMP determination after forskolin stimulation in transfected HEK-293T cells. Format: cell-based. More on the design: expressed in transfected cells; host or cells: HEK-293T, transient transfection (PEI). As to the method:
as §1
HEK-293T cells were grown in Dulbecco’s Modified Eagle’s Medium (DMEM) medium (Gibco, Paisley, Scotland, United Kingdom) supplemented with 2 mM L-glutamine, 100 U/mL penicillin/streptomycin, MEM Non-Essential Amino Acids Solution (1/100) and 5% (v/v) heat inactivated Fetal Bovine Serum (FBS) (Invitrogen, Paisley, Scotland, United Kingdom). Cells were maintained in a humid atmosphere of 5% CO2 at 37 °C. Cells were transiently transfected with the PEI (Polyethylenimine, Sigma, St. Louis, MO, United States) method as previously described and used for functional assays 48 h later.
Signaling experiments have been performed as previously described. Two hours before initiating the experiment, HEK-293T cell-culture medium was replaced by serum-starved DMEM medium. Then, cells were detached, resuspended in growing medium containing […] zardaverine (Tocris, Bristol, U.K.) and placed in 384-well microplates (2500 cells/well). Cells were pretreated (15 min) with cannabinoid compounds (1 nM to 100 μM) -or vehicle- before adding […] forskolin (Tocris, Bristol, U.K.) to induce cAMP accumulation. Readings were performed after 15 min incubation at 25 °C. Homogeneous Time Resolved Fluorescence (HTRF) energy transfer measures were performed using the Lance Ultra cAMP kit (PerkinElmer, Waltham, MA, United States). Fluorescence at 665 nm was analyzed in a PHERA star Flagship microplate reader equipped with an HTRF optical module (BMG Lab Technologies, Offenburg, Germany).

The target in experiment [7] is T2, CB2R. In words: CB2R β-arrestin recruitment. Format: cell-based. More on the design: expressed in transfected cells; host or cells: HEK-293T, transient transfection (PEI).
Description: as §1, §2

[8] abbreviates: read-out: CB1R Ki; abused SCRAs and N-methyl analogues, earlier study of the authors; cited from earlier work.
The mark [9] stands for this setting: read-out: CB2R Ki; abused SCRAs and N-methyl analogues, earlier study of the authors; cited from earlier work.
Setting [10] is: at 1 μM, earlier study of the authors; cited from earlier work.

T1 sequence (P21554 whole entry): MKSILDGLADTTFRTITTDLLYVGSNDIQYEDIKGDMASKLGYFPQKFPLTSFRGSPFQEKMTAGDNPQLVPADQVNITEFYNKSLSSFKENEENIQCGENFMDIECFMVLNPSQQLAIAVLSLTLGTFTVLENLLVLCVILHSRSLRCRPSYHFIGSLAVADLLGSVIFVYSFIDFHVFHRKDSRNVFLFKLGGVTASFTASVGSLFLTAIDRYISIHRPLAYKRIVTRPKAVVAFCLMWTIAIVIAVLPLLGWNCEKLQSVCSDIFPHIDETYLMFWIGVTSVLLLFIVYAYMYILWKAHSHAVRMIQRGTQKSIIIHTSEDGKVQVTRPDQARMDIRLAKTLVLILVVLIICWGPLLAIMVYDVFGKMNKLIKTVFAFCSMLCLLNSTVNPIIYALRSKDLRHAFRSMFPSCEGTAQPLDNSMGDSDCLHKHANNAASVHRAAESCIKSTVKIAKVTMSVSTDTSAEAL
T2 sequence (P34972 whole entry): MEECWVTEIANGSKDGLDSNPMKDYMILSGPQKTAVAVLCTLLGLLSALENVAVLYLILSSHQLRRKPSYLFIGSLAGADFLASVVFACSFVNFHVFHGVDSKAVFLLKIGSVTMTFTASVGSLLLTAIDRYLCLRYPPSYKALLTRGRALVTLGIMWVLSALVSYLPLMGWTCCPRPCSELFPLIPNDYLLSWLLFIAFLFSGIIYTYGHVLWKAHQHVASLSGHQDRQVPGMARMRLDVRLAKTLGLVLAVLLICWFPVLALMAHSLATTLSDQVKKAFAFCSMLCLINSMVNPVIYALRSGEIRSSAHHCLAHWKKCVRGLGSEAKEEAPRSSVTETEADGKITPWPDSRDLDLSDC

Usually Ki stands for a dissociation constant, usually derived from enzyme kinetics or from competition with a known ligand. In the case of `CC(C)(C)[C@H](NC(=O)c1cn(CC2CCCCC2)c2ccccc12)C(N)=O` [compound 9, ADB-CHMICA], the Ki in experiment [1] (setting [8]) is 1.1 nM; in experiment [2] (setting [9]), 0.76 nM.
On to `COC(=O)CN(C)C(=O)c1nn(Cc2ccc(F)cc2)c2ccccc12` [compound 12], for which the “CB1R % (1 μM)” value in experiment [1] (setting [10]) is reported as 33%. Further, in experiment [2] (setting [9]), the inhibition constant Ki was 540 nM.
For the molecule `COC(=O)[C@@H](NC(=O)c1cn(Cc2ccc(F)cc2)c2ccccc12)C(C)C` [compound 4, AMB-FUBICA], the inhibition constant (Ki) in experiment [1] (abused SCRAs and N-methyl analogues, earlier study of the authors; read-out: CB1R Ki; cited from earlier work) is 47.8 nM; in experiment [2] (abused SCRAs and N-methyl analogues, earlier study of the authors; read-out: CB2R Ki; cited from earlier work), 20 nM.
Regarding `COC(=O)CNC(=O)c1nn(Cc2ccc(F)cc2)c2ccccc12` [compound 11], the figures for the inhibition constant (Ki) in experiment [1] (setting [8]) and in experiment [2] (setting [9]) were 181 nM and 125 nM, respectively.
Turning to `COC(=O)[C@@H](NC(=O)c1nn(CCCCCF)c2ccccc12)C(C)(C)C` [compound 1, 5F-MDMB-PINACA], the inhibition constant Ki in experiment [1] (setting [8]) was 0.8 nM; in experiment [2] (setting [9]), 0.1 nM.
As for `CC(C)[C@H](NC(=O)c1cn(CCCCCF)c2ccccc12)C(N)=O` [compound 7, 5F-AB-PICA], the Ki in experiment [1] (setting [8]) was 14.8 nM; in experiment [2] (setting [9]), 8.6 nM.
With `CC(C)[C@H](NC(=O)c1nn(CC2CCCCC2)c2ccccc12)C(N)=O` [compound 6], the inhibition constant (Ki) in experiment [1] (setting [8]) was 0.9 nM; in experiment [2] (setting [9]), 1.1 nM.
Turning to `CCCCCn1nc(C(=O)N[C@H](C(N)=O)C(C)C)c2ccccc21` [compound 5, AB-PINACA], the inhibition constant (Ki) in experiment [1] (setting [8]) is 1.16 nM; in experiment [2] (setting [9]), 0.94 nM.
With `NC(=O)CNC(=O)c1nn(CC2CCCCC2)c2ccccc12` [compound 13], the inhibitory constant (Ki) in experiment [1] (setting [8]) is 268 nM; in experiment [2] (setting [9]), 171 nM.
Turning to `COC(=O)[C@@H](NC(=O)c1cn(CC2CCCCC2)c2ccccc12)C(C)C` [compound 3, AMB-CHMICA], the Ki was 10.5 nM in experiment [1] (setting [8]) and 3.44 nM in experiment [2] (setting [9]).
For the molecule `CC(C)(C)[C@H](NC(=O)c1cn(Cc2ccc(F)cc2)c2ccccc12)C(N)=O` [compound 10, ADB-FUBICA], the Ki was 53.8 nM in experiment [1] (setting [8]) and 5.15 nM in experiment [2] (setting [9]).
Turning to `CC(C)[C@H](NC(=O)c1cn(Cc2ccc(F)cc2)c2ccccc12)C(N)=O` [compound 8, AB-FUBICA], the inhibitory constant (Ki) in experiment [1] (setting [8]) was 35.2 nM; in experiment [2] (setting [9]), 83.2 nM.
Take `COC(=O)[C@@H]1CCCN1C(=O)c1cn(CC2CCCCC2)c2ccccc12` [15e]: in experiment [3], the Ki was 11.3 ± 0.5 nM. In experiment [4], the affinity, expressed as Ki, was 38.3 ± 2.1 nM and the “SI Ki CB1R/Ki CB2R” value was found to be 0.3.
In turn, `COC(=O)[C@@H]1CCCCN1C(=O)c1cn(CC2CCCCC2)c2ccccc12` [16e] came in with a Ki in experiment [3] of 122 ± 8 nM. Moreover, in experiment [4], the Ki was 45.1 ± 1.7 nM and the “SI Ki CB1R/Ki CB2R” value is recorded as 3.
The matching figures for `COC(=O)[C@@H]1CCCCN1C(=O)c1cn(CCCCCF)c2ccccc12` [16c]: 716 ± 16 nM, 84.1 ± 1.9 nM and 8.
The matching figures for `COC(=O)[C@@H]1CCCN1C(=O)c1nn(CC2CCCCC2)c2ccccc12` [15m]: 73.4 ± 2.9 nM, 20.7 ± 0.6 nM and 3.
`CN(CC(N)=O)C(=O)c1nn(CC2CCCCC2)c2ccccc12` [compound 14]: the “CB1R % (1 μM)” value in experiment [1] (setting [10]) is 21%. Also, in experiment [2] (setting [9]), the Ki is 482 nM.
Turning to `COC(=O)[C@@H](NC(=O)c1nn(Cc2ccc(F)cc2)c2ccccc12)C(C)(C)C` [compound 2, MDMB-FUBINACA], the inhibitory constant (Ki) in experiment [1] (setting [8]) is 0.83 nM; in experiment [2] (setting [9]), 0.3 nM.
With `COC(=O)[C@@H]1CCCN1C(=O)c1cn(Cc2ccc(F)cc2)c2ccccc12` [15g], in experiment [3], affinity was put at a Ki of 14.4 ± 0.6 nM. In experiment [4], the affinity, expressed as Ki, was 47.7 ± 1.9 nM and the “SI Ki CB1R/Ki CB2R” value amounted to 0.3.
As to `NC(=O)[C@H]1CCCN1C(=O)c1nn(CCCCCF)c2ccccc12` [17l], the “CB1R % at 1 μM” value in experiment [3] amounted to 4%. In addition, in experiment [4], the “CB2R % at 1 μM” value was 25%.
The matching figures for `CCCCCn1cc(C(=O)N2CCC[C@@H]2C(=O)OC)c2ccccc21` [15b]: 4% and 25%.
Turning to `NC(=O)[C@@H]1CCCCN1C(=O)c1cn(Cc2ccc(F)cc2)c2ccccc12` [18g], the “CB1R % at 1 μM” value in experiment [3] worked out at 21%. Further, in experiment [4], the affinity, expressed as Ki, was 115 ± 5 nM and the “SI Ki CB1R/Ki CB2R” value is on record as more than 100.
As a reminder, the EC50 is the concentration giving half of the maximal effect. For the molecule `CCCC(C)(C)c1ccc2c(c1)OC(C)(C)[C@@H]1CC=C(C)C[C@@H]21` [JWH-133, reference compound], the half-maximal effective concentration (EC50) amounted to 2.7 ± 0.19 nM in experiment [5]; 6.73 ± 0.5 nM in experiment [6] (transfected HEK-293T cells, forskolin-stimulated cAMP, read-out: CB2R EC50 AMPc); 1.34 ± 0.05 nM in experiment [7]. In experiment [5] (normalized to CP 55,940), the “CB2R Emax MAPK” value worked out at 98%. Besides, the “CB2R Emax AMPc” value in experiment [6] (normalized to maximal efficacious concentration of CP 55,940) is on record as 98%. Besides, the “CB2R Emax β-arrestin” value in experiment [7] (normalized to CP 55,940) is given as 93%.
As for `CCCCCn1cc(C(=O)N2CCC[C@H]2C(N)=O)c2ccccc21` [17a], in experiment [3], the “CB1R % at 1 μM” value is given as 2%. The “CB2R % at 1 μM” value in experiment [4] came to 24%.
On to `COC(=O)[C@@H]1CCCCN1C(=O)c1nn(Cc2ccc(F)cc2)c2ccccc12` [16o], for which, in experiment [3], the Ki came to 65.4 ± 2.4 nM. Further, in experiment [4], the affinity, expressed as Ki, was 4.1 ± 0.12 nM and the “SI Ki CB1R/Ki CB2R” value is 16.

Values taken from paper PMC12406204 (Journal of Medicinal Chemistry, 2025).
